{
  "source": "paper PMC5842439",
  "about": "(Nuclear medicine and biology, 2013)",
  "system": "BT474 xenografts",
  "conditions": "for tumor SUV, % of pretreatment SUV: mice without DOX (n=8), mean±SD",
  "note": "Like-named read-outs stand apart in the source and are kept apart here.",
  "data": [
    {"smiles": "OC[C@H]1OC(O)[C@H]([18F])[C@@H](O)[C@@H]1O", "note": "(stereo partly shown) [Agent F-18-FDG, 2’-F-18-fluorodeoxyglucose]", "values": [
      {"measurement": "muscle uptake in contralateral normal thigh", "setting": "PET imaging, mouse bearing BT474 tumor in the right thigh", "result": "significant"},
      {"measurement": "tumor SUV, % of pretreatment SUV", "setting": "3rd week", "result": "108±28", "unit": "%"},
      {"measurement": "tumor SUV, % of pretreatment SUV", "setting": "5th week", "result": "151±8", "unit": "%"},
      {"measurement": "tumor SUV, % of pretreatment SUV", "setting": "7th week", "result": "152±355", "unit": "%"}
    ]}
  ]
}
